Read-outs that look alike come from different tables or passages of the source.
Tests used:
E. Coli = test: Antimicrobial susceptibility (zone of inhibition) test, Kirby-Bauer disc diffusion; type: cell-based; conditions: samples 30 ug/ml, Muller-Hinton agar, about 24 hrs
Description: (§1) Anti-microbial susceptibility (zone of inhibition) tests were conducted by an outside analytical laboratory. The Kirby-Bauer or disc diffusion method of assessing antimicrobial activity is an established literature procedure and was used with some modifications to the standard protocol: 1) S. Aureus and E. Coli were grown in Muller-Hinton broth and incubated at 30-35° C. for 18-24 hrs, 2) samples were diluted in sterile water for injections or pure water to achieve a concentration of 30 ug/ml and were plated in triplicate, and 3) the test plates were prepared using Muller-Hinton agar and incubated at 30-35° C. for approximately 24 hrs.
(§2) The diameters of the zone of inhibition (if present) around the test sample were measured using calibrated calipers. […] 3a has some activity (average zone of 24.45 mm) against S. Aureus.

S. Aureus = test: as above; type: cell-based; conditions: for The diameter of the zone including sample: S. Aureus, samples 30 ug/ml, Muller-Hinton agar, about 24 hrs, average of triplicate; for antimicrobial activity in this assay: disc diffusion, S. Aureus and E. Coli, 30 ug/ml
Description: as §1, §2

[1] = Intravenous blood brain barrier (BBB) penetration assay in mice; type: in vivo, CD-1 mice; conditions: 1 mg/kg tail-vein
Description: Intravenous blood brain barrier (BBB) penetration of Compounds 38 and 3b in mice was assessed by an outside analytical laboratory using the standard protocol. CD-1 mice were tail-vein injected with 38 or 3b (1 mg/kg, n=3), and the plasma and brain samples were collected at 30, 60 and 180 min time intervals. The concentration of 38 and 3b in brain (ng/g tissue), plasma and the ratio of the brain concentration at each time point were determined by acetonitrile precipitation of the test compounds from the samples followed by HPLC-MS?MS analysis.
After treatment of the animals with the test compounds, plasma samples were collected by cardiac puncture. Blood aliquots (300-400 μL) were collected in lithium heparincoated tubes, mixed gently, then kept on ice and centrifuged at 2,500×g for 15 minutes at 4° C. within 1 hour of collection. Plasma was then harvested and kept frozen at −20° C. until further processing.
Immediately after blood sampling, mice were decapitated and the whole brains were quickly removed, rinsed with cold saline (0.9% NaCl, g/mL), surface vasculature ruptured, blotted with dry gauze weighed and kept on ice until further processing within 1 hour of collection. Each brain was homogenized in 1.5 mL cold phosphate-buffered saline, pH 7.4, for 10 seconds on ice using a POWERGEN 125 homogenizer. Each sample was then stored at −20° C. until further processing.
Brain homogenates collected as above were processed by adding an equal volume of chilled 26% (g/mL) neutral Dextran (average MW 65,000-85,000, from Sigma, catalog number D-1390) solution to obtain a final Dextran concentration of 13%. The homogenate was centrifuged at 5400×g for 15 minutes at 4° C. Supernatents were subsequently processed using acetonitrile precipitation and analyzed by HPLC-MS. A brain calibration curve was generated by spiking drug-free brain homogenate from the control animals with test compound at specified concentration levels. The spiked brain homogenate samples were processed together with the unknowns using the same procedure. Processed brain samples were stored frozen (−20° C.) until LC-MS/MS analysis.
Plasma samples collected as above were processed and analyzed as for the brain homogenate supernatents described above.
After processing, all samples were analyzed using HPLC-MS/MS analysis. HPLC analysis employed a Synergi Max-RP 80 HPLC column (2×50 mm, 4 μm, Phenomenex Part No. 00B-4337-B0), using a first mobile phase of 13.3 mM ammonium formate/6.7 mM formic acid in water, and a second mobile phase of 6 mM ammonium formate/3 mM formic acid in water/CH3CN (1/9, v/v). MS/MS analysis was done on a TSQ QUANTUM with selected reaction monitoring, positive ion mode, using a capillary temperature of 325° C. and a capillary voltage of 4.0 kV. Peak areas were recorded, and the concentrations of the test compound in the unknown brain samples were determined using the respective calibration curves.

[2] = Stability testing in solution; type: physicochemical; conditions: de-ionized water, saline and PBS at pH of about 3 to 7.5
Description: Compounds of the present invention will be stable in solution and/or in powder form. To test for stability in different solutions (e.g., de-ionized water, de-ionized water adjusted with K2HPO4 to pH 7.4, de-ionized water adjusted with NaOH to pH 9, saline solution or PBS). The compounds are tested for degradation at different times at different temperatures. By way of example, compound 3b was stable in de-ionized water saline and PBS at pH of about 3 to 7.5.

| Structure (SMILES) | The diameter of the zone including sample (E. Coli) | The diameter of the zone including sample (S. Aureus) | antimicrobial activity in this assay (S. Aureus) | blood brain barrier penetration in vivo [1] | concentration in the brain ([1]; 180 min, n=3) | concentration at 30 min ([1]; CD-1, mouse, brain, intravenous, 30 min, n=3, read-out: concentration in the brain) [ng/g] | concentration at 60 min ([1]; CD-1, mouse, brain, intravenous, n=3, read-out: concentration in the brain) [ng/g] | Kp at 0.5 h ([1]; CD-1, mouse, brain/plasma, intravenous, 30 min, read-out: Calculated ratio of brain to plasma concentration) | concentration at 30 min ([1]; CD-1, mouse, plasma, intravenous, 30 min, n=3, read-out: Plasma concentration) [ng/mL] | concentration at 60 min ([1]; CD-1, mouse, plasma, intravenous, n=3, read-out: Plasma concentration) [ng/mL] | concentration at 180 min ([1]; CD-1, mouse, plasma, intravenous, 180 min, n=3) [ng/mL] | stability in solution [2] |
| --- | --- | --- | --- | --- | --- | --- | --- | --- | --- | --- | --- | --- |
| CN(C)c1cc2c(c3c1C[C@H]1C[C@H]4[C@H](N(C)C)C(O)=C(C(N)=O)C(=O)[C@@]4(O)C(O)=C1C3=O)OCC(=O)N2 [Compound 38, (6aR,7aS,8S,11aS)-5,8-bis(dimethylamino)-9,11a,12-trihydroxy-2,11,13trioxo-2,3,6,6a,7,7a,8,11,11a,13-decahydrotetraceno[2,1-d]morpholine-10-carboxamide] | no zone | no zone | no antimicrobial activity | – | – | – | – | – | – | – | – | – |
| CN(C)c1cc2[nH]c(=O)oc2c2c1C[C@H]1C[C@H]3[C@H](N(C)C)C(O)=C(C(N)=O)C(=O)[C@@]3(O)C(O)=C1C2=O [Compound 3b, (6aR,7aS,8S,11aS)-5,8bis(dimethylamino)-9,11a,12-trihydroxy-2,11,13-trioxo-2,3,6,6a,7,7a,8,11,11a,13decahydrotetraceno[2,1-d]oxazole-10-carboxamide] | no zone | no zone | no antimicrobial activity | acceptable | below the limit of quantitation | 6.7 | 5.8 | 0.07 | 97 | 27 | 4 | stable |
| CN(C)c1cc2ncoc2c2c1C[C@H]1C[C@H]3[C@H](N(C)C)C(O)=C(C(N)=O)C(=O)[C@@]3(O)C(O)=C1C2=O [Compound 3a, (6aR,7aS,8S,11aS)-5,8-bis(dimethylamino)-9,11a,12trihydroxy-11,13-dioxo-6,6a,7,7a,8,11,11a,13-octahydrotetraceno[2,1-d]oxazole-10carboxamide] | no zone | – | – | – | – | – | – | – | – | – | – | – |

Reference: patent US9896422B2, “Tetracycline derivatives with reduced antibiotic activity and neuroprotective benefits” (Neumedics, priority 2008, dated 2018)
